In this experiment the test system is human papillomavirus 11. The experiment in a line: Inhibition of the assembly of the (HPV11) Human Papillomavirus Type 11 E1E2 Origin DNA Complex. The experiment is classed as functional, organism-based.
In turn, `O=C(Nc1ccc2c(c1)OCO2)[C@H]1[C@@H](c2ccc(Cl)cc2)OC2(C(=O)c3ccccc3C2=O)[C@H]1C(=O)O` gave an IC50 of 7.8 µM.

With `O=C1[C@H]2[C@H](c3ccc(Cl)cc3)OC3(C(=O)c4ccccc4C3=O)[C@H]2C(=O)N1c1ccc2c(c1)OCO2`, the IC50 was more than 80 µM.

As for `O=C1C2C(c3ccc(Cl)cc3)OC3(C(=O)c4ccccc4C3=O)C2C(=O)N1c1ccc2c(c1)OCO2` (stereo not drawn), the midpoint of inhibition, the IC50, lay at 11 µM.

As to `O=C(Nc1ccc2c(c1)OCO2)[C@H]1[C@@H](c2ccccc2)OC2(C(=O)c3ccccc3C2=O)[C@H]1C(=O)O`, it took 71 µM to reach half-maximal inhibition (IC50).

`O=C(Nc1ccc2c(c1)OCO2)[C@H]1[C@@H](c2ccccc2Cl)OC2(C(=O)c3ccccc3C2=O)[C@H]1C(=O)O` had an IC50 of more than 80 µM.

For `O=C(Nc1ccc2c(c1)OCO2)[C@H]1[C@@H](c2ccc(Cl)c(Cl)c2)OC2(C(=O)c3ccccc3C2=O)[C@H]1C(=O)O`, inhibition was half-maximal at 0.35 µM (IC50).

In turn, `O=C(Nc1ccc2c(c1)OCO2)[C@H]1[C@@H](c2cccc(Cl)c2)OC2(C(=O)c3ccccc3C2=O)[C@H]1C(=O)O` came in with an IC50 of 2.6 µM.

For `O=C(Nc1ccc2c(c1)OCO2)[C@H]1C(c2ccc(Cl)cc2)OC2(C(=O)c3ccccc3C2=O)[C@H]1C(=O)O` (stereo partly drawn), the IC50 is more than 80 µM.

In general, IC50 refers to the midpoint of a concentration-inhibition curve.

(Values after ChEMBL document CHEMBL1136133, “Discovery of the first series of inhibitors of human papillomavirus type 11: inhibition of the assembly of the E1-E2-Origin DNA complex” (Bioorg Med Chem Lett, 2003).)
